How the values were obtained:
human CSNK1D = target: T1, human CSNK1D (Homo sapiens, UniProt P48730); assay: Whole Cell nBRET CSNK1D Binding Assay; conditions: living CHO cells stably expressing human CSNK1D tagged with nanoluciferase; NanoBret tracer 130 nM; 2 hours at 37 C
T1 construct: expressed in transfected cells

[1] = target: T2, human recombinant GST cleaved CSNK1D (Homo sapiens, UniProt P48730); assay: Purified Enzyme Assay (ADP-Glo CSNK1D Kinase Assay); type: biochemical; conditions: 2 nM CSNK1D; peptide substrate 150 μM; ATP 20 μM; 45 minutes at room temperature
T2 construct: GST (cleaved yes); purchased University of Dundee clone DU 19064
T2 sequence (P48730 whole entry): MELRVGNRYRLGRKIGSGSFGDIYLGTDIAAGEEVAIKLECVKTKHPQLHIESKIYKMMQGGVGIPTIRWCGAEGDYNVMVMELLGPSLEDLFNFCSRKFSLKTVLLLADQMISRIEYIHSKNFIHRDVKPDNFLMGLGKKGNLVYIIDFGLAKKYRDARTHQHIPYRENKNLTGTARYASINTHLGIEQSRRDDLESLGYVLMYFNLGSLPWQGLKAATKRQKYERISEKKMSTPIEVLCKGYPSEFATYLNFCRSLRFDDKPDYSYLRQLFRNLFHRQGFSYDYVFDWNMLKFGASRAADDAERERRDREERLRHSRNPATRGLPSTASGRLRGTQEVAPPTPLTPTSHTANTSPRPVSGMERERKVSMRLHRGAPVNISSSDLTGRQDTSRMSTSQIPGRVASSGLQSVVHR
Method in brief: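 Percent activity derived from ADP-Glo quantification of ADP produced. Reactions: compound dose-response with human recombinant GST-cleaved CSNK1D, ATP and substrate peptide PLSRTL-pS-VASLPGL, incubated 45 min at room temperature.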

T1 sequence (P48730 whole entry): as above

Row | IC50 (human CSNK1D) | IC50 [1] | SMILES
1 | 2 nM | 1 nM | Cc1cc(-c2c(-c3ccc(F)cc3)nn3c2OCC2(CC2)C3)c2cn[nH]c2n1 [Example 461, 2′-(4-Fluorophenyl)-3′-(6-methyl-1H-pyrazolo[3,4-b]pyridin-4-yl)-5′H,7′H-spiro[cyclopropane-1,6′-pyrazolo[5,1-b][1,3]oxazine]]
2 | 252 nM | 54 nM | Cc1cc(-c2c(-c3ccc(F)cn3)nn3c2CO[C@@](C)(C(F)(F)F)C3)c2cn[nH]c2n1 (single isomer, unassigned) [Example 180, (*R)-2-(5-Fluoropyridin-2-yl)-6-methyl-3-(6-methyl-1H-pyrazolo[3,4-b]pyridin-4-yl)-6-(trifluoromethyl)-6,7-dihydro-4H-pyrazolo[5,1-c][1,4]oxazine]
3 | 43 nM | 4 nM | [2H]C([2H])([2H])C1(C([2H])([2H])[2H])Cn2nc(-c3ccc(F)cn3)c(-c3cc(C)nc4[nH]ncc34)c2CO1 [Example 401, 2-(5-Fluoropyridin-2-yl)-6,6-bis(methyl-d3)-3-(6-methyl-1H-pyrazolo[3,4-b]pyridin-4-yl)-6,7-dihydro-4H-pyrazolo[5,1-c][1,4]oxazine]
4 | 320 nM | 10 nM | Cc1cc(-c2c(-c3ncc(F)cc3F)nn3c2OCCC3)c2cn[nH]c2n1 [Example 189, 2-(3,5-Difluoro-2-pyridyl)-3-(6-methyl-1H-pyrazolo[3,4-b]pyridin-4-yl)-6,7-dihydro-5H-pyrazolo[5,1-b][1,3]oxazine]
5 | 165 nM | 9 nM | Cc1nc(-c2nn3c(c2-c2ccnc4[nH]ncc24)COC(C)(C)C3)ccc1F [Example 164, 2-(5-Fluoro-6-methylpyridin-2-yl)-6,6-dimethyl-3-(1H-pyrazolo[3,4-b]pyridin-4-yl)-6,7-dihydro-4H-pyrazolo[5,1-c][1,4]oxazine]
6 | 11 nM | 1 nM | C[C@@]1(CF)CCc2c(-c3ccnc4[nH]ncc34)c(-c3ccc(F)cn3)nn2C1 (single isomer, unassigned) [Example 52, (*R)-4-[6-(Fluoromethyl)-2-(5-fluoro-2-pyridyl)-6-methyl-5,7-dihydro-4H-pyrazolo[1,5-a]pyridin-3-yl]-1H-pyrazolo[3,4-b]pyridine]
7 | 2 nM | 1 nM | Cc1cc(-c2c(-c3ccc(F)cc3)nn3c2OCC(C)(C)C3)c2cn[nH]c2n1 [Example 213, 2-(4-Fluorophenyl)-6,6-dimethyl-3-(6-methyl-1H-pyrazolo[3,4-b]pyridin-4-yl)-6,7-dihydro-5H-pyrazolo[5,1-b][1,3]oxazine]
8 | 597 nM | 69 nM | Cc1n[nH]c2nccc(-c3c(-c4ccc(F)cc4)nn4c3OCC3(C4)CC3(F)F)c12 (single isomer, unassigned) [Example 472, (*S)-2,2-Difluoro-2′-(4-fluorophenyl)-3′-(3-methyl-1H-pyrazolo[3,4-b]pyridin-4-yl)-5′H,7′H-spiro[cyclopropane-1,6′-pyrazolo[5,1-b][1,3]oxazine]]

Further lines, the compound ahead of its results:

Row | SMILES | IC50 (human CSNK1D) | IC50 [1]
9 | COCC1(F)CCc2c(-c3c(F)c(C)nc4[nH]ncc34)c(-c3ccc(F)cn3)nn2C1 (single isomer, unassigned) [Example 308, (*S)-5-Fluoro-4-[6-fluoro-2-(5-fluoro-2-pyridyl)-6-(methoxymethyl)-5,7-dihydro-4H-pyrazolo[1,5-a]pyridin-3-yl]-6-methyl-1H-pyrazolo[3,4-b]pyridine] | 34 nM | 6 nM
10 | CC1(C)Cn2nc(-c3ccc(F)cn3)c(-c3ccn4ncnc4c3)c2CO1 [Example 385, 3-([1,2,4]Triazolo[1,5-a]pyridin-7-yl)-2-(5-fluoropyridin-2-yl)-6,6-dimethyl-6,7-dihydro-4H-pyrazolo[5,1-c][1,4]oxazine] | 1570 nM | 50 nM
11 | Fc1ccc(-c2nn3c(c2-c2ccnc4[nH]nc(Cl)c24)C[C@@H]2C[C@@H]23)nc1 [Example 271, (4aS,5aS)-3-(3-Chloro-1H-pyrazolo[3,4-b]pyridin-4-yl)-2-(5-fluoropyridin-2-yl)-4,4a,5,5a-tetrahydrocyclopropa[4,5]pyrrolo[1,2-b]pyrazole] | 4 nM | 2 nM
12 | [2H]C([2H])([2H])C1(C([2H])([2H])[2H])Cc2c(-c3c(F)c(C)nc4[nH]ncc34)c(-c3ccc(F)cn3)nn2C1 [Example 244, 5-Fluoro-4-[2-(5-fluoro-2-pyridyl)-5,5-bis(methyl-d3)-4,6-dihydropyrrolo[1,2-b]pyrazol-3-yl]-6-methyl-1H-pyrazolo[3,4-b]pyridine] | 29 nM | 4 nM
13 | [2H]C([2H])([2H])[C@@]1(C(F)(F)F)Cn2nc(-c3ccc(F)cn3)c(-c3ccnc4[nH]nc(Cl)c34)c2CO1 (single isomer, unassigned) [Example 427, (*S)-3-(3-Chloro-1H-pyrazolo[3,4-b]pyridin-4-yl)-2-(5-fluoropyridin-2-yl)-6-(methyl-d3)-6-(trifluoromethyl)-6,7-dihydro-4H-pyrazolo[5,1-c][1,4]oxazine] | 19 nM | 4 nM
14 | [2H]C([2H])([2H])[C@@]1(C(F)(F)F)Cn2nc(-c3ccc(F)cn3)c(-c3cc(C)nc4[nH]nc(C)c34)c2CO1 (single isomer, unassigned) [Example 429, (*S)-3-(3,6-Dimethyl-1H-pyrazolo[3,4-b]pyridin-4-yl)-2-(5-fluoropyridin-2-yl)-6-(methyl-d3)-6-(trifluoromethyl)-6,7-dihydro-4H-pyrazolo[5,1-c][1,4]oxazine] | 2230 nM | 133 nM
15 | [2H]C([2H])([2H])C1(C([2H])([2H])[2H])Cn2nc(-c3ccc(F)cn3)c(-c3c(F)c(C)nc4[nH]nc(Cl)c34)c2CO1 [Example 408, 3-(3-Chloro-5-fluoro-6-methyl-1H-pyrazolo[3,4-b]pyridin-4-yl)-2-(5-fluoropyridin-2-yl)-6,6-bis(methyl-d3)-6,7-dihydro-4H-pyrazolo[5,1-c][1,4]oxazine] | 26 nM | 6 nM
16 | [2H]C([2H])([2H])[C@@]1(C(F)(F)F)Cn2nc(-c3ccc(F)cn3)c(-c3ccnc4[nH]nc(C)c34)c2CO1 (single isomer, unassigned) [Example 426, (*S)-2-(5-Fluoropyridin-2-yl)-6-(methyl-d3)-3-(3-methyl-1H-pyrazolo[3,4-b]pyridin-4-yl)-6-(trifluoromethyl)-6,7-dihydro-4H-pyrazolo[5,1-c][1,4]oxazine] | 87 nM | 17 nM
17 | CC(C)[C@H]1Cn2nc(-c3ccc(F)cn3)c(-c3ccnc4[nH]ncc34)c2CO1 (single isomer, unassigned) [Example 98, (*S)-2-(5-Fluoropyridin-2-yl)-6-isopropyl-3-(1H-pyrazolo[3,4-b]pyridin-4-yl)-6,7-dihydro-4H-pyrazolo[5,1-c][1,4]oxazine] | 2280 nM | 31 nM
18 | Fc1ccc(-c2nn3c(c2-c2c(F)cnc4[nH]ncc24)CCC3)nc1 [Example 221, 5-Fluoro-4-[2-(5-fluoro-2-pyridyl)-5,6-dihydro-4H-pyrrolo[1,2-b]pyrazol-3-yl]-1H-pyrazolo[3,4-b]pyridine] | 460 nM | 7 nM
19 | Fc1cncc(-c2nn3c(c2-c2ccnc4[nH]ncc24)COCC3)c1 [Example 76, 2-(5-Fluoro-3-pyridyl)-3-(1H-pyrazolo[3,4-b]pyridin-4-yl)-6,7-dihydro-4H-pyrazolo[5,1-c][1,4]oxazine] | 2930 nM | 168 nM
20 | Cc1cc(-c2c(-c3ccc(F)cc3)nn3c2CO[C@H](C)C3)c2cn[nH]c2n1 (single isomer, unassigned) [Example 84, (*R)-2-(4-Fluorophenyl)-6-methyl-3-(6-methyl-1H-pyrazolo[3,4-b]pyridin-4-yl)-6,7-dihydro-4H-pyrazolo[5,1-c][1,4]oxazine] | 25 nM | 1 nM
21 | Cc1nc2[nH]nc(C)c2c(-c2c(-c3ccc(F)cn3)nn3c2CC2(C3)CC2(F)F)c1F (single isomer, unassigned) [Example 266, (*S)-1′1l′-Difluoro-3-(5-fluoro-3,6-dimethyl-1H-pyrazolo[3,4-b]pyridin-4-yl)-2-(5-fluoro-2-pyridyl)spiro[4,6-dihydropyrrolo[1,2-b]pyrazole-5,2′-cyclopropane]] | 337 nM | 52 nM
22 | CC1(C)Cn2nc(-c3ccc(F)cn3)c(-c3ccn4ncc(N)c4c3)c2CO1 [Example 381, 5-[2-(5-Fluoro-2-pyridyl)-6,6-dimethyl-4,7-dihydropyrazolo[5,1-c][1,4]oxazin-3-yl]pyrazolo[1,5-a]pyridin-3-amine] | 228 nM | 64 nM
23 | Cc1nc2[nH]ncc2c(-c2c(-c3ccc(F)cn3)nn3c2C[C@@H]2C[C@@H]23)c1F [Example 273, (4aS,5aS)-3-(5-Fluoro-6-methyl-1H-pyrazolo[3,4-b]pyridin-4-yl)-2-(5-fluoropyridin-2-yl)-4,4a,5,5a-tetrahydrocyclopropa[4,5]pyrrolo[1,2-b]pyrazole] | 29 nM | 2 nM
24 | Fc1ccc(-c2nn3c(c2-c2ccnc4[nH]ncc24)[C@@H]2CC[C@H]3C2)nc1 (single isomer, unassigned) [Example 62, (4*R,7*S)-2-(5-Fluoropyridin-2-yl)-3-(1H-pyrazolo[3,4-b]pyridin-4-yl)-4,5,6,7-tetrahydro-4,7-methanopyrazolo[1,5-a]pyridine] | 55 nM | 6 nM
25 | C[C@@H]1[C@@H](C)OCc2c(-c3ccnc4[nH]ncc34)c(-c3ccc(F)cn3)nn21 (stereo in doubt) [Example 118, (6*R,7*R)-2-(5-Fluoropyridin-2-yl)-6,7-dimethyl-3-(1H-pyrazolo[3,4-b]pyridin-4-yl)-6,7-dihydro-4H-pyrazolo[5,1-c][1,4]oxazine] | 1160 nM | 49 nM
